Test results as given in article PMC3744530, “CTA095, a Novel Etk and Src Dual Inhibitor, Induces Apoptosis in Prostate Cancer Cells and Overcomes Resistance to Src Inhibitors” (PLoS ONE, 2013).

How the values were obtained:
[1] = test system: pEtk, pSrc, pSTAT3, Myc and BCL2 in PC3-AZD20 cells; experiment: Western blot of pEtk, pSrc, pStat3, Myc and BCL2; assay type: cell-based, human; settings: PC3-AZD20, 10 μM
Procedure: PC3-AZD20 cells were seeded at 10^6 cells/well in 6 well plates overnight. The cells were treated with AZD0530 or CTA095 at 10 μM. Apoptosis was analyzed using Annexin-V FITC apoptosis detection kit. The mRNA levels of Myc and BCL2 were measured using real-time PCR. pEtk, Etk, pSrc, Src, pStat3, Stat3, Myc and BCL2 levels were measured using the corresponding antibodies through a Western blot.
Figure 12 CTA095 induces apoptosis in Src inhibitor resistant prostate cancer cells through Myc and BCL2 inhibition. PC3-AZD20 (PC3 cell resistant to 20 μM AZD0530) cells were seeded at 10^6 cells/well in 6 well plates overnight. The cells were treated with AZD0530 or CTA095 at 10 μM. Apoptosis was analyzed using Annexin-V FITC apoptosis detection kit (A). The mRNA levels of Myc and BCL2 were measured using real-time PCR (B). pEtk, Etk, pSrc, Src, pStat3, Stat3, Myc and BCL2 levels were measured using the corresponding antibodies through Western blot (C). Columns, mean; bars, standard deviation, n = 3.

[2] = test system: PC3 cells stably transfected with GFP-LC3; set-up: method as in PMID 20811583; settings: cited from earlier work
PC3-AZD20 cells = experiment: MTT cell viability in Src inhibitor resistant cells; assay type: cell-based, human; settings: 72 h
Procedure: PC3 and PC3-AZD20 (PC3 cell resistant to 20 μM AZD0530, which is from AstraZeneca through MTA with Dr. Chris Evans) cells were seeded at 2000 cells/well in 96 well plates overnight. The cells were treated with AZD0530 or CTA095 at the indicated concentrations. Cell viability was measured using an MTT assay after 72 h.
Figure 11 CTA095 overcomes Src inhibitor resistance in prostate cancer cells. PC3 and PC3-AZD20 (PC3 cell resistant to 20 μM AZD0530) cells were seeded at 2000 cells/well in 96 well plates overnight. The cells were treated with AZD0530 or CTA095 at the indicated concentrations. Cell viability was measured using MTT assay after 72 h. Symbols, mean; bars, standard deviation, n = 3.

In the case of `CN1CCN(CCOc2cc(OC3CCOCC3)c3c(Nc4c(Cl)ccc5c4OCO5)ncnc3c2)CC1` [AZD0530, reference compound], the “pEtk, pSrc, pSTAT3, Myc and BCL2 protein levels” value [1] is listed as “pSrc and pSTAT3, but not c-myc and Bcl-2 were decreased”, the “autophagy in prostate cancer cells” value [2] is listed as “induces autophagy” and the “cell viability / sensitivity of PC3-AZD20 cells” value (PC3-AZD20 cells) is listed as “resistant”.
